# Results published in ChEMBL document CHEMBL3861965, “Stereochemical Assignment and Biological Evaluation of BE-14106 Unveils the Importance of One Acetate Unit for the Antifungal Activity of Polyene Macrolactams” (J Nat Prod, 2016).
# Activity calls are given as the source filed them. The rule behind the calls is not given here.
# Key:
# Format in all cases: functional
# [1] = Antifungal activity against fission yeast harboring deltaerg31/deltaerg32 mutant after 24 hrs by turbidity assay; conditions: Schizosaccharomyces pombe
# [2] = tested on: Schizosaccharomyces pombe; assay: Antifungal activity against wild type fission yeast JY1 assessed as accumulation of cell wall material at 0.25 uM after 2 hrs by cfw-dye based fluorescence microscopic analysis
# [3] = Antifungal activity against fission yeast harboring deltasts1/erg4 mutant after 24 hrs by turbidity assay; conditions: Schizosaccharomyces pombe
# [4] = Antifungal activity against fission yeast harboring deltaerg2 mutant after 24 hrs by turbidity assay; conditions: Schizosaccharomyces pombe
# [5] = Antifungal activity against fission yeast harboring deltaerg5 mutant after 24 hrs by turbidity assay; conditions: Schizosaccharomyces pombe
# [6] = Antifungal activity against wild type fission yeast JY1 after 24 hrs by turbidity assay; conditions: Schizosaccharomyces pombe
# [7] = Antifungal activity against wild type fission yeast JY1 after 24 hrs by XTT assay; conditions: Schizosaccharomyces pombe
MIC [7],SMILES,MIC [1],Activity [2],MIC [3],MIC [4],MIC [5],MIC [6]
,CCC/C=C/C=C/C[C@@H]1C/C=C/C=C(C)/C=C/C=C\[C@@H](O)[C@@H](O)/C=C(C)/C=C/C=C/C(=O)N1,0.13 to 0.28 µM,Active,0.13 to 0.28 µM,0.13 to 0.28 µM,0.13 to 0.28 µM,0.13 to 0.28 µM
0.27 µM,C[C@@H]1[C@H](O)[C@@H](C)/C=C/C=C/C=C/C=C/C=C/C=C/C=C/[C@H](O[C@@H]2O[C@H](C)[C@@H](O)[C@H](N)[C@@H]2O)C[C@@H]2O[C@](O)(C[C@@H](O)C[C@@H](O)[C@H](O)CC[C@@H](O)C[C@@H](O)CC(=O)O[C@H]1C)C[C@H](O)[C@H]2C(=O)O,,,,,,
